Active and inactive are the calls of the source.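 Rule for the calls: active = compounds giving half or more protection of infected cells from virus-caused growth loss, again on retest; inactive = the rest.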
Tested on: CEM cells HIV-1 protection, formazan growth assay
Assay: NCI AIDS Antiviral Assay
Conditions: for IC50: measured here: growth of uninfected CEM cells
Procedure, shortened: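 CEM (human) cells, HIV-1 infected vs uninfected, 5-point dosing, formazan growth read-out. Retest threshold 50% protection.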

Nc1c(C(=O)O)nnc2ccc(Cl)cc12
EC50: > 200 µM | IC50: 186 µM

c1ccc(SC2(Sc3ccccc3)CCCCCCCCCCC2)cc1
EC50: > 200 µM | IC50: 166 µM

Nc1nc(Cl)c(N=Nc2ccc(Cl)cc2)c(NCC2(CO)CC(OCc3ccccc3)C2)n1 (stereo not given)
EC50: > 20 µM | IC50: 14.5 µM

CS(=O)(=O)NOCCCCONS(C)(=O)=O
EC50: > 912 µM | IC50: > 912 µM

C1=C(N2CCOCC2)/C(=C2\SC(=Nc3ccccc3)C(=Nc3ccccc3)N2c2ccccc2)CC1
EC50: > 200 µM | IC50: 138 µM

CC(=O)NC(CCC(=O)C=[N+]=N)C(=O)O (stereo not given)
EC50: > 200 µM | IC50: 29.5 µM

NNCCc1n[nH]c(=O)n1N
EC50: > 200 µM | IC50: > 200 µM

CC(=O)OC1C(COS(=O)(=O)O)OC(O[C@H]2CC[C@@]3(C)C(=CC[C@@H]4C3CC[C@@]3(C)C4CC[C@@H]3C(C)=O)C2)C(OC(C)=O)C1OC(C)=O (stereo not given in full)
EC50: > 31.6 µM | IC50: > 31.6 µM

CCOC(=O)C1(C)C2=CC=C(O2)C(C)(C)C2=CC=C(O2)C(C)(C)C2=CC=C(O2)C(C)(C)C2=CC=C1O2
outcome: inactive

COc1cc(OC)c2c(C)cc(=O)oc2c1
EC50: > 200 µM | IC50: > 200 µM

Cc1cc(/C=C\c2ccnc3ccccc23)ccc1N(C)C
outcome: inactive

CCOC(=O)C(NCc1ccccc1)(NC(=O)c1ccccc1)C(F)(F)F (stereo not given)
outcome: inactive

CC(=O)SC1CC(=O)OC1=O (stereo not given)
EC50: > 200 µM | IC50: > 200 µM

Nc1nnc(N)c2[nH]cnc12
EC50: > 200 µM | IC50: > 200 µM

O=C1CNC(=O)c2ncn(C3OC(CO)C(O)C3O)c2N1 (stereo not given)
EC50: > 240 µM | IC50: > 240 µM

N#CC12C3C4CC5C6C4C1C6C(O)(C53)N2Cc1ccccc1 (stereo not given)
EC50: > 447 µM | IC50: 257 µM

Cc1cc(Br)ccc1Nc1nc(N)nc(N)c1N=O
EC50: > 200 µM | IC50: 51.3 µM

CCN(CC)CC(=O)Nc1cc(Cl)ccc1C
EC50: > 200 µM | IC50: > 200 µM

COc1ccc(C2=Nc3ccccc3SC(C)C2)cc1 (stereo not given)
EC50: > 13.2 µM | IC50: > 13.2 µM

C=C(C)C12CC3CC/C(=N/O)C(C1)C3(N1CCOCC1)C/C2=N/O (stereo not given)
EC50: > 200 µM | IC50: > 200 µM

COc1c(C(=O)c2cc(Cl)cc(S(=O)(=O)N(C)C=O)c2OC)cc(Cl)cc1S(=O)(=O)N(C)C=O
EC50: > 46.8 µM | IC50: > 46.8 µM

C=CC1(c2ccc(Cl)c(Cl)c2)OCCO1
EC50: > 200 µM | IC50: 166 µM

Cc1ccc(S(=O)(=O)Nn2c3c(cc(C#N)c2=O)CCCC3)cc1
EC50: > 200 µM | IC50: > 200 µM

CN(c1ccccc1)S(=O)(=O)c1cccc([N+](=O)[O-])c1
EC50: 50.1 µM | IC50: 105 µM

COc1ccc(C/C(=N/O)C(=O)NCCc2cc(Br)c(OCCCN(C)C)c(Br)c2)cc1Br
outcome: inactive

CCCc1cc(=O)oc2c3c(c4c(c12)OC(C)(C)CC4)O[C@@H](C)[C@H](C)[C@H]3O
EC50: > 200 µM | outcome: inactive | IC50: 33.1 µM

O=C1CCC(c2nc3ccccc3o2)C(=O)N1 (stereo not given)
EC50: > 1070 µM | IC50: > 1070 µM

CN(C)CCCNC(=O)c1c(O)c2ccccc2[nH]c1=O
EC50: > 200 µM | IC50: > 200 µM

COc1cc[c]([Sb]([Br])([CH]=C(C)C)([CH]=C(C)C)[CH]=C(C)C)cc1
EC50: > 380 µM | IC50: 3.02 µM

CC(NC(=O)OCc1ccccc1)C(=O)NC(C(=O)O)C(C)C (stereo not given)
EC50: > 776 µM | IC50: > 776 µM

CC1=CC(=O)/C(=C/N2CCNC2=S)C(=O)O1
EC50: > 200 µM | IC50: > 200 µM

Cc1ccc(NC(=O)C(=O)C2C(=O)NC(=O)NC2=O)cc1C
EC50: > 117 µM | IC50: > 117 µM

CCCCC1(C(=O)OCC)SCCCS1
EC50: > 75.9 µM | IC50: > 75.9 µM

CCOc1ccc(N=O)c(O)c1
EC50: > 200 µM | IC50: 3.98 µM

Cc1ccc(S(=O)(=O)C(CC(NC=O)S(=O)(=O)c2ccc(C)cc2)NC=O)cc1 (stereo not given)
outcome: inactive

CC(C)=CCC/C(C)=C/CCC1(C)C=Cc2c(c3ccccc3oc2=O)O1 (stereo not given)
outcome: inactive

CCOC(=O)C1CC(O)C(=O)N1C (stereo not given)
outcome: inactive

Cc1cc(=O)n2nc(CSc3n[nH]c(=S)s3)sc2n1
EC50: > 200 µM | IC50: > 200 µM

CC(C)(C)C(=O)/C=C/c1cccc([N+](=O)[O-])c1
EC50: > 58.9 µM | IC50: 8.71 µM

O=C1NC(O)c2cc(O)ccc2O1 (stereo not given)
EC50: > 200 µM | IC50: 81.3 µM

COc1cc(N)ccc1Nc1c2ccccc2nc2ccccc12
EC50: > 200 µM | IC50: 1.02 µM

C=CC(C)(C)c1[nH]cnc1/C=C1\NC(=O)[C@H](C(C)C)NC1=O
EC50: > 200 µM | IC50: 2.4 µM

CC1CCC(C(C)C)/C(=N/NC(=O)CC#N)C1 (stereo not given)
EC50: > 200 µM | IC50: > 200 µM

O=c1ccc2cc3ccoc3c(O)c2o1
EC50: > 447 µM | IC50: 135 µM

COC(=O)CCC(NC(=O)C(C)NC(=O)COC1C(O)C(OC(=O)CCNc2c3ccccc3nc3cccc([N+](=O)[O-])c23)OC(OCc2ccccc2)C1NC(C)=O)C(N)=O (stereo not given)
outcome: inactive

OCCCCCCCCCCCOc1ccc(C2OCC3(CC=CCC3)CO2)cc1 (stereo not given)
EC50: > 200 µM | IC50: 36.3 µM

COc1cc2ccc(=O)oc2cc1O
EC50: > 339 µM | IC50: 55 µM

CC(=O)[CH-]C(C)=O.CC(=O)[CH-]C(C)=O.CCCNCCN.[Cr+5].[O-][Cl+3]([O-])([O-])[O-]
EC50: > 200 µM | IC50: > 200 µM

CNC(=O)c1n[nH]nc1Sc1c([N+](=O)[O-])ncn1C
outcome: inactive

Cn1cc(C(=O)/C(Cl)=C(\Cl)C(=O)O)c2ccccc21
outcome: inactive

O=C1c2cc([N+](=O)[O-])cc3cc([N+](=O)[O-])cc(c23)C(=O)N1CCNCCN1C(=O)c2cc([N+](=O)[O-])cc3cc([N+](=O)[O-])cc(c23)C1=O
EC50: > 29.5 µM | IC50: 0.0912 µM

COCCOCc1nc(C#N)c(N)o1
outcome: inactive

C/C=C/COC(=O)CO[N+](=O)[O-]
outcome: inactive

CC(=O)OC1C(COC(=O)c2ccccc2)OC(Nc2ncc(-c3ccc(Br)cc3)s2)C(OC(=O)c2ccccc2)C1OC(=O)c1ccccc1 (stereo not given)
EC50: > 200 µM | IC50: 20.4 µM

O=C(O)c1cc(NCc2cc(O)ccc2O)ccc1O
EC50: > 25.1 µM | IC50: 5.13 µM

CC(=O)OC1CCn2nnc(CO)c21 (stereo not given)
outcome: inactive

O=C1CCC(N2C(=O)c3ccccc3C2=O)C(=O)N1 (stereo not given)
outcome: inactive

O=C1C=CC(=O)C(CNc2ccc(C(=O)OC34CC5CC(CC(C5)C3)C4)cc2)=C1
EC50: > 200 µM | IC50: 10.5 µM

O=[N+]([O-])c1cc(Cl)ccc1S(=O)(=O)c1ccc(Cl)cc1[N+](=O)[O-]
outcome: inactive

CCCCCCCCCCCCOC(=N)N(C)C
EC50: > 200 µM | IC50: 2 µM

S=C1C(=Nc2ccccc2)N(c2ccccc2)/C(=N\c2cccc[n+]2Cc2ccccc2)N1c1ccccc1
EC50: 15.5 µM | IC50: 27.5 µM

CN1C(=O)C(C)(C)C2(SC(C)(C)C2(C)C)N(C)C1=S (stereo not given)
EC50: > 24 µM | IC50: > 24 µM

S=c1[nH]c(=S)c2nc(Nc3ccccc3)sc2[nH]1
EC50: > 617 µM | IC50: > 617 µM

CC1CC[N+]2(C)CCCC12 (stereo not given)
EC50: > 1120 µM | IC50: > 1120 µM

COC(=O)c1nc(NC#N)[nH]c(=O)c1C
EC50: > 34.7 µM | IC50: > 34.7 µM

CC(C)(C)c1cc(C(c2ccccc2)c2ccccc2)cc(C(C)(C)C)c1O
EC50: > 60.3 µM | IC50: 33.1 µM

CN(CC#N)C1CCC[C@]1(O)C#C[Si](C)(C)c1ccccc1 (stereo not given in full)
EC50: > 60.3 µM | IC50: 57.5 µM
